{
  "source": "patent US20220313587A1",
  "about": "“Oral Care Compositions” (Colgate-Palmolive Company, priority 2019, published 2022)",
  "key": {"Cyp24A1": {"system": "Cyp24A1", "assay": "Relative gene expression by qPCR (Cyp24A1 probe) in oral tissue model after treatment with toothpaste slurry", "type": "cell-based, human", "conditions": "fresh toothpaste slurry 1:3 in water, 2 minutes treatment, overnight incubation, normalized with GAPDH", "description": "(§1) A toothpaste slurry was prepared by diluting the toothpaste formulation of Table 1 with deionized water in a 1:3 ratio. The slurry was applied on top of tissues that modeled the human oral cavity. After 2 minutes of the treatment, the tissues were rinsed with PBS twice or three times. Medium in wells was replaced with fresh medium and incubated in a cell culture incubator for overnight. Tissues were harvested and processed for RNA isolation and c-DNA preparation. Two probes were used for qPCR; CAP-18 (LL-37) and Cyp24A1. Relative levels of expressions were assessed after normalization with GAPDH (internal control).\n(§2) The data is consistent for both LL-37 and Cyp24A1."}, "CAP-18 (LL-37)": {"system": "CAP-18 (LL-37)", "assay": "Relative gene expression by qPCR (LL-37 probe) in oral tissue model after treatment with toothpaste slurry", "type": "cell-based, human", "conditions": "fresh toothpaste slurry 1:3 in water, 2 minutes treatment, overnight incubation, normalized with GAPDH", "description": "as §1, §2"}, "[1]": {"system": "gingival epithelial cells (GEC)", "assay": "Topical application of vitamin D to gingival epithelial cells, LL-37 expression", "type": "cell-based"}},
  "data": [
    {"smiles": "C=C1CC[C@H](O)C/C1=C/C=C1\\CCC[C@]2(C)[C@@H]([C@H](C)CCCC(C)C)CC[C@@H]12", "note": "[Neat Active, cholecalciferol]", "values": [
      {"measurement": "Relative Gene Expression after Treatment, Cyp24A1, Mean", "setting": "Cyp24A1", "result": 4.3},
      {"measurement": "Relative Gene Expression after Treatment, LL-37, Mean", "setting": "CAP-18 (LL-37)", "result": 2.0}
    ]},
    {"smiles": "C=C1/C(=C\\C=C2/CCC[C@]3(C)[C@@H]([C@H](C)CCCC(C)(C)O)CC[C@@H]23)C[C@@H](O)C[C@@H]1O", "note": "[1,25(OH)2D3, 1,25-dihydroxycholecalciferol]", "values": [
      {"measurement": "expression of anti-microbial peptide (LL-37) proteins", "setting": "[1]", "result": "induces enhanced expression"}
    ]}
  ]
}
